From article PMC10226046, “Prodrug Strategies for the Development of β-L-5-((E)-2-Bromovinyl)-1-((2S,4S)-2-(hydroxymethyl)-1,3-(dioxolane-4-yl))uracil (L-BHDU) against Varicella Zoster Virus (VZV)” (Journal of Medicinal Chemistry, 2023)

Experiment: In vitro stability in mouse liver homogenates (LC-MS/MS)
Format: in vitro ADME, BALB/c mice
Conditions: 37 °C; converted to L-BHDU and L-BHDU-MP
Procedure: The antiviral efficacy of POM-L-BHDU-MP prompted us to perform pharmacokinetic studies on POM-L-BHDU-MP in vitro and in vivo. […] In liver homogenates, POM-L-BHDU-MP converted to L-BHDU and L-BHDU-MP (Figure 4). POM-L-BHDU-MP incubated with homogenized mouse liver was unstable and converted to L-BHDU and L-BHDU-MP. The concentration of L-BHDU increased steadily, reaching 1.9 μg/mL after 60 min. L-BHDU-MP appeared rapidly and reached maximal concentration (4.6 μg/mL) after 4 min, which is 32-fold higher than the corresponding L-BHDU concentration. Thus, POM-L-BHDU-MP likely converts rapidly into L-BHDU-MP and more slowly into L-BHDU in the liver.
Untreated BALB/c mice were euthanized, and their livers were immediately removed. […] The concentration of POM-L-BHDU-MP, L-BHDU, and L-BHDU-MP were determined using LC-MS/MS.
The primary stock solutions for the calibration were prepared at 0.5 mg/mL for L-BHDU, 1 mg/mL for POM-L-BHDU-MP, and 1 mg/mL for L-BHDU-MP. […] The samples were analyzed in a negative ESI mode. […] The collision gas was argon with a collision cell pressure of 3.18 × 10^–3 mbar, and the collision energy was 30 V. A multiple reaction monitoring (MRM) function was used to quantify the analytes using the following ion transitions: 266.1 → 223.2 for AZT (ISTD), 318.7 → 80.7 for L-BHDU, 398.7 → 180.9 for L-BHDU-MP, and 626.6 → 325 for POM-L-BHDU-MP.

## CC(C)(C)C(=O)OCOP(=O)(OCOC(=O)C(C)(C)C)OC[C@H]1OC[C@@H](n2cc(/C=C/Br)c(=O)[nH]c2=O)O1 [POM-L-BHDU-MP (41), Bis(POM) Prodrug of L-BHDU-MP]
  stability in homogenized mouse liver: unstable
